This passage reports TGI results from PubChem BioAssay (NCI).

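Following 48 hours of exposure in 96-well plates, responses at five concentrations were used to interpolate endpoints linearly. The concentration for full growth arrest is given as TGI.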

Some test systems named below: MOLT-4 leukemia; HCT-15 colon; PC-3 prostate; HCT-116 colon; MCF7 breast; UO-31 renal; NCI-H23 lung; T-47D breast; SF-295 CNS; K-562 leukemia; MALME-3M melanoma; NCI-H226 lung; SF-268 CNS.
Common to all, as to experiment: growth of human tumour cells (NCI), 48 h

As for `Cn1c(-c2c(C3=CC(=O)N(c4ccccc4)C3=O)c3ccccc3n2C)cc2ccccc21`, the TGI with MOLT-4 leukemia, in the assay on HCT-15 colon, with PC-3 prostate, with HCT-116 colon, in the assay on MCF7 breast and in the assay with UO-31 renal was greater than 100 µM throughout. In addition, the TGI with NCI-H23 lung, with T-47D breast, with SF-295 CNS, in the assay on K-562 leukemia, in the assay with MALME-3M melanoma and with NCI-H226 lung was greater than 100 µM in each case.

For `CCOC(=O)CCC(NC(=O)c1ccc(Nc2nc3ccccc3nc2C(=O)OCC)s1)C(=O)OCC` (configuration not stated), the TGI in the assay with MOLT-4 leukemia, in the assay on HCT-15 colon, in the assay on PC-3 prostate, in the assay with HCT-116 colon, in the assay on MCF7 breast and in the assay on UO-31 renal was greater than 100 µM in each case. Also, the TGI in the assay with T-47D breast, in the assay with K-562 leukemia, in the assay on MALME-3M melanoma, in the assay on NCI-H226 lung and in the assay on SF-268 CNS was greater than 100 µM throughout.

With `ClC1=C(Cl)C2OC3C=CCC3OC2C(Cl)=C1Cl` (configuration not stated), the TGI in the assay with MOLT-4 leukemia, in the assay on HCT-15 colon, with PC-3 prostate, with HCT-116 colon, with MCF7 breast and in the assay with UO-31 renal was greater than 100 µM in each case. The TGI in the assay on NCI-H23 lung, in the assay on T-47D breast, with SF-295 CNS, in the assay with K-562 leukemia, in the assay with NCI-H226 lung and in the assay with SF-268 CNS was greater than 100 µM in each case.

For the molecule `Clc1ncnc2c1nc(C#Cc1ccccc1)n2C1CCCCO1` (configuration not stated), the TGI in the assay on MOLT-4 leukemia stood at 8.32 µM; with PC-3 prostate, 11.8 µM; in the assay on HCT-116 colon, 4.02 µM; in the assay with MCF7 breast, 3.22 µM; in the assay with UO-31 renal, 3.38 µM; in the assay on NCI-H23 lung, 4.15 µM. The TGI with T-47D breast was 4.55 µM; in the assay on SF-295 CNS it was 16.5 µM; with K-562 leukemia, 7.46 µM; in the assay with MALME-3M melanoma, 3.91 µM; in the assay with NCI-H226 lung, 6.47 µM; in the assay on SF-268 CNS, 6.22 µM.

In the case of `C=C1CC(O)C2C(=C)C(=O)OC2C2C(C)C(=O)CC12` (configuration not stated), the TGI with MOLT-4 leukemia is 39.2 µM; with HCT-15 colon, 17.1 µM; in the assay on PC-3 prostate it was greater than 100 µM; in the assay with HCT-116 colon, greater than 100 µM; in the assay on MCF7 breast, 26.2 µM; with UO-31 renal it was 28 µM. For the same molecule, the TGI came to 31.8 µM in the assay with NCI-H23 lung; 73 µM in the assay on T-47D breast; 68.9 µM with SF-295 CNS; 28.7 µM in the assay on K-562 leukemia; 31.5 µM in the assay on MALME-3M melanoma; 45.7 µM in the assay with SF-268 CNS.

Regarding `Cc1oc2nc(N(C)C)n3cnnc3c2c1C`, the TGI in the assay on MOLT-4 leukemia, with HCT-15 colon, with PC-3 prostate, in the assay with HCT-116 colon, in the assay with MCF7 breast and in the assay with UO-31 renal was greater than 100 µM in each case. Moreover, the TGI in the assay on NCI-H23 lung, with T-47D breast, in the assay on SF-295 CNS, in the assay with K-562 leukemia, in the assay with NCI-H226 lung and in the assay on SF-268 CNS was greater than 100 µM in each case.

Consider `OCC(S)CS.[Bi]` (configuration not stated), for which the TGI in the assay on HCT-15 colon was 50.7 µM; in the assay on PC-3 prostate, 27.3 µM; in the assay with HCT-116 colon, 44.4 µM; with MCF7 breast, greater than 100 µM; in the assay with UO-31 renal it was 34.1 µM; in the assay on NCI-H23 lung it was 52.2 µM. Moreover, the TGI is 31.5 µM in the assay with T-47D breast; greater than 100 µM in the assay on SF-295 CNS; greater than 100 µM in the assay on K-562 leukemia; 17.6 µM in the assay with MALME-3M melanoma; greater than 100 µM with NCI-H226 lung; 28.4 µM in the assay with SF-268 CNS.

Regarding `Cc1ccc(S(=O)(=O)NC(=O)NC(CC(=O)O)C(=O)O)cc1` (configuration not stated), the TGI in the assay on MOLT-4 leukemia, in the assay on HCT-15 colon, in the assay on PC-3 prostate, in the assay with HCT-116 colon, with MCF7 breast and in the assay with UO-31 renal was greater than 100 µM in each case. In addition, the TGI with NCI-H23 lung, in the assay with T-47D breast, in the assay with SF-295 CNS, with K-562 leukemia, in the assay with MALME-3M melanoma and in the assay with SF-268 CNS was greater than 100 µM each time.

As for `Cc1cc(S(=O)(=O)Nc2n[nH]c(Nc3ccccc3)n2)c(SSc2cc(Cl)c(C)cc2S(=O)(=O)Nc2n[nH]c(Nc3ccccc3)n2)cc1Cl`, the TGI in the assay with MOLT-4 leukemia is greater than 100 µM; in the assay on HCT-15 colon, greater than 100 µM; with PC-3 prostate, greater than 100 µM; in the assay on HCT-116 colon it was greater than 100 µM; with MCF7 breast, greater than 10 µM; in the assay on UO-31 renal, greater than 100 µM. For the same molecule, the TGI in the assay on NCI-H23 lung, in the assay with T-47D breast, in the assay with SF-295 CNS, in the assay on K-562 leukemia, in the assay on MALME-3M melanoma and in the assay with SF-268 CNS was greater than 100 µM in each case.

As to `Cc1cc(O)c(C(C)C)cc1C(=S)Nc1ccc(Cl)cc1`, the TGI is 19 µM in the assay with MOLT-4 leukemia; 25.1 µM in the assay with HCT-15 colon; 23 µM with PC-3 prostate; 26 µM in the assay with HCT-116 colon; 22.9 µM in the assay with MCF7 breast; 17.7 µM with NCI-H23 lung. Moreover, the TGI in the assay on T-47D breast stood at 29.2 µM; in the assay on SF-295 CNS, 28.3 µM; in the assay on K-562 leukemia, 23.4 µM; in the assay on MALME-3M melanoma, 21.9 µM; in the assay on SF-268 CNS, 19.7 µM.

Take `CCc1n[nH]c(=O)[nH]1`: the TGI in the assay with MOLT-4 leukemia, in the assay on HCT-15 colon, in the assay on PC-3 prostate, in the assay with HCT-116 colon, with MCF7 breast and in the assay on UO-31 renal was greater than 100 µM throughout. Further, the TGI in the assay on NCI-H23 lung, with T-47D breast, with SF-295 CNS, in the assay with K-562 leukemia, with MALME-3M melanoma and in the assay with SF-268 CNS was greater than 100 µM throughout.

With `CCCCCCCCCCCCCCCCCCNc1nc(=O)n(C2CC(OP(=O)(O)OCC3OC(n4cc(F)c(=O)[nH]c4=O)CC3O)C(CO)O2)cc1F` (configuration not stated), the TGI with MOLT-4 leukemia is 41.9 µM; in the assay on HCT-15 colon it was greater than 100 µM; in the assay with PC-3 prostate it was greater than 100 µM; in the assay with HCT-116 colon it was greater than 100 µM; in the assay with MCF7 breast it was greater than 100 µM; in the assay with UO-31 renal, 44.2 µM. Besides, the TGI with NCI-H23 lung was greater than 100 µM; with T-47D breast, greater than 100 µM; in the assay with SF-295 CNS, 38.5 µM; in the assay on K-562 leukemia, greater than 100 µM; in the assay with NCI-H226 lung, greater than 100 µM; with SF-268 CNS, 37.1 µM.
